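96-well plates; 48 h exposure; 5 concentrations. Endpoints by linear interpolation between flanking doses. Not reached: highest tested concentration assigned. GI50 = concentration required for 50% inhibition of growth.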 The source made the active and inactive calls. Cut-off read from the data, not from the text of the source: active = GI50 up to about 1.1 µM and inactive = higher.
Tests used:
Experiment in all cases: growth of human tumour cells (NCI), 48 h
EKVX = test system: EKVX
OVCAR-3 = test system: OVCAR-3
MDA-MB-231 = test system: MDA-MB-231
CCRF-CEM = test system: CCRF-CEM
HOP-92 = test system: HOP-92
DU-145 = test system: DU-145
K562 = test system: K562
ACHN = test system: ACHN
A549 = test system: A549
MCF7 = test system: MCF7
BT-549 = test system: BT-549
MOLT-4 = test system: MOLT-4
SK-MEL-5 = test system: SK-MEL-5
SR = test system: SR
SNB-19 = test system: SNB-19
M14 = test system: M14
HT-29 = test system: HT-29
SF-268 = test system: SF-268
T47D = test system: T47D

Measured: GI50

CCOC(=O)c1c(C)nc2c3ccccc3c(C#N)c(C)n12
inactive: EKVX 6.65 µM | OVCAR-3 > 100 µM | MDA-MB-231 14.3 µM | CCRF-CEM > 100 µM | HOP-92 58.7 µM | DU-145 74.8 µM | K562 > 100 µM | ACHN 57.5 µM | A549 50.1 µM | MCF7 > 100 µM | BT-549 > 100 µM | MOLT-4 > 100 µM | SK-MEL-5 48.1 µM | SR 33.9 µM | SNB-19 > 100 µM

Oc1nc(S)nc2c1C(c1ccc(Cl)cc1)c1c(O)nc(S)nc1O2
inactive: EKVX > 100 µM | M14 > 100 µM | OVCAR-3 > 100 µM | MDA-MB-231 > 100 µM | CCRF-CEM > 100 µM | HOP-92 > 100 µM | DU-145 > 100 µM | K562 > 100 µM | ACHN > 100 µM | A549 > 100 µM | HT-29 > 100 µM | MCF7 > 100 µM | BT-549 > 100 µM | SF-268 25.7 µM | MOLT-4 > 100 µM | SK-MEL-5 > 100 µM | SNB-19 > 100 µM

CN(C)CCn1nc(N)c2nc3cc(C(F)(F)F)ccc3nc21
inactive: EKVX > 100 µM | M14 > 100 µM | MDA-MB-231 > 100 µM | CCRF-CEM 79.3 µM | HOP-92 79.4 µM | DU-145 54.8 µM | K562 > 100 µM | ACHN > 100 µM | A549 58.2 µM | HT-29 > 100 µM | MCF7 > 100 µM | BT-549 99.8 µM | SF-268 94.6 µM | MOLT-4 33.2 µM | SK-MEL-5 > 100 µM | SR > 100 µM | SNB-19 > 100 µM

Cn1c(S)nnc1CNc1ccc(-c2nnc(S)n2C)cc1
inactive: EKVX > 100 µM | M14 > 100 µM | OVCAR-3 > 100 µM | MDA-MB-231 > 100 µM | CCRF-CEM > 100 µM | HOP-92 > 100 µM | DU-145 > 100 µM | K562 > 100 µM | ACHN > 100 µM | A549 > 100 µM | HT-29 > 100 µM | MCF7 > 100 µM | BT-549 > 100 µM | SF-268 > 100 µM | MOLT-4 > 100 µM | SK-MEL-5 > 100 µM | SNB-19 > 100 µM

CCCCCCc1cc2cc(C(=O)Nc3ccccc3)c(=N)oc2cc1O
inactive: EKVX 3.29 µM | M14 3.6 µM | OVCAR-3 2.09 µM | T47D 2.33 µM | MDA-MB-231 3.36 µM | CCRF-CEM 3.47 µM | HOP-92 3.25 µM | DU-145 4.82 µM | ACHN 3.44 µM | A549 3.27 µM | HT-29 3.28 µM | MCF7 4.35 µM | BT-549 9.25 µM | SF-268 4.85 µM | MOLT-4 2.16 µM | SK-MEL-5 2.56 µM | SNB-19 3.33 µM

CN(CCc1ccc(N)cc1)[C@H]1CCCC[C@H]1N1CCCC1
inactive: EKVX > 100 µM | M14 > 100 µM | OVCAR-3 > 100 µM | T47D > 100 µM | MDA-MB-231 > 100 µM | HOP-92 > 100 µM | DU-145 > 100 µM | K562 70.3 µM | ACHN > 100 µM | A549 > 100 µM | HT-29 78.2 µM | MCF7 > 100 µM | BT-549 > 100 µM | SF-268 > 100 µM | MOLT-4 98.4 µM | SK-MEL-5 > 100 µM | SNB-19 > 100 µM

Cc1c(C#N)c2ccccc2c2nc3ccccc3n12
inactive: EKVX > 100 µM | OVCAR-3 > 100 µM | MDA-MB-231 20.6 µM | CCRF-CEM > 100 µM | HOP-92 > 100 µM | DU-145 43.2 µM | K562 > 100 µM | ACHN 64.1 µM | A549 93.1 µM | MCF7 50.9 µM | BT-549 > 100 µM | MOLT-4 47.5 µM | SK-MEL-5 5.82 µM | SR > 10 µM | SNB-19 > 100 µM

CSC1(CC(=O)N2CCCCC2)C(=O)Nc2ccccc21 (stereo not given)
inactive: EKVX > 100 µM | M14 > 100 µM | OVCAR-3 > 100 µM | T47D > 100 µM | DU-145 > 100 µM | K562 > 100 µM | ACHN > 100 µM | A549 > 100 µM | HT-29 > 100 µM | MCF7 > 100 µM | BT-549 > 100 µM | SF-268 > 100 µM | MOLT-4 > 100 µM | SK-MEL-5 > 100 µM | SNB-19 > 100 µM

CSc1nc(Nc2cccc(C(F)(F)F)c2)c2c(N)nn(C)c2n1
inactive: M14 76 µM | OVCAR-3 > 100 µM | T47D 71.8 µM | MDA-MB-231 > 100 µM | CCRF-CEM 38.1 µM | DU-145 > 100 µM | K562 84.9 µM | ACHN > 100 µM | A549 43.6 µM | HT-29 51.9 µM | BT-549 > 100 µM | SF-268 > 100 µM | MOLT-4 49 µM | SK-MEL-5 > 100 µM | SNB-19 > 100 µM

Reference: ChEMBL document CHEMBL1201862, “PubChem BioAssay data set” (2004)
